Tests used:
eIF4E = target: T1, eIF4E (Mus musculus, UniProt P63073); experiment: FA competition (probe-displacement) assay for eIF4E; assay type: binding, Murine; conditions: for EC50: HEPES pH 7.2
T1 construct: Murine eIF4E (residues 28–217) was expressed in E. coli; made in house; host or cells: E. coli
Description: Inclusion bodies containing eIF4E were solubilized in 50 mM HEPES/KOH (pH 7.2) buffer containing 10% glycerol, 6 M guanidine hydrochloride and 2 mM DTT. Protein was then refolded during a two-step dialysis against buffer with decreasing concentration of guanidine hydrochloride in the presence of 100 mM KCl. Subsequently eIF4E was loaded on ion exchange HiTrap SP HP column (GE Healthcare), eluted with linear gradient of 0.1–1 M KCl and finally desalted and polished during a gel filtration purification step on HiLoad 16/600 Superdex 75 pg (GE Healthcare) using 50 mM HEPES pH 7.2, 100 mM KCl, 0.5 mM EDTA, 2 mM DTT buffer. eIF4E was aliquoted and stored in the presence of 10% glycerol at −80 °C. Before each experiment the protein was centrifuged on Ultrafree-MC Centrifugal PVDF filter with […] pore size (Millipore), at 4 °C and 3000×g for 2 min to remove any possible aggregates.
(§1) Experiments were carried out at 25 °C in 96-well non-binding microplates with sample volume of 200 µl per well. Two different buffers were used depending on protein used in the assay:
eIF4E assay buffer—50 mM HEPES (pH 7.2), 100 mM KCl, 0.5 mM EDTA, 1 mM DTT.
(§2) For competitive binding assay, a mixture containing the probe and the protein was incubated with the tested ligand.
(§3) In competitive measurements, a constant concentration of the protein and fluorescent probe and increasing concentration of the test ligand were used. At least 12 point dilutions of the tested compound were used. The experiments were carried out in 96-well plates. Each sample contained a mixture consisting of the probe, tested ligand and buffer (same as for the direct binding assay). The samples were incubated for 10 min at 25 °C with simultaneous shaking, then the protein was added to each well, incubated for additional 3 min, followed by the measurement of fluorescence anisotropy. FA signals were recorded for 20 min with 2 min intervals.

DcpS [1] = system: DcpS; parameters: method as in PMID 27031609; conditions: DcpS inhibition, FR assay; cited from earlier work
DcpS [2] = target: T2, DcpS (Homo sapiens, UniProt Q96C86); experiment: FA competition assay for DcpS; assay type: binding
T2 construct: His tag; made in house; host or cells: E. coli BL21(DE3) RIL
T2 sequence (Q96C86 1-337): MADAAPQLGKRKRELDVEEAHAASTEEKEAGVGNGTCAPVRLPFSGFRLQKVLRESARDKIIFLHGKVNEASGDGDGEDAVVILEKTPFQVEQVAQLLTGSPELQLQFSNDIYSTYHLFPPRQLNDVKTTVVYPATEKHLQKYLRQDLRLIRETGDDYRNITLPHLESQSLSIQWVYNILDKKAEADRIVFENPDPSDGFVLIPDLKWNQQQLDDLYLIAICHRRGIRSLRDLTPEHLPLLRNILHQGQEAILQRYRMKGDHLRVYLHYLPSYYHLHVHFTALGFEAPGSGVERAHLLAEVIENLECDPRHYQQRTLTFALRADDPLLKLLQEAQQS
Description: Expression of recombinant His-tagged human DcpS was performed in BL21(DE3) RIL strain and induced overnight at 18 °C using 0.5 mM IPTG as described previously. Cells were harvested, resuspended in buffer (50 mM Tris pH 7.6, 500 mM NaCl, 20 mM imidazole) with lysozyme (0.1 mg/ml) and protease inhibitors (1 mM PMSF, 1 µM pepstatin A, 0.3 µM aprotinin) and then lysed using sonication. Lysate was clarified by centrifugation at 35 000 × g for 40 min at 4 °C. […] The enzyme hDcpS was purified to homogeneity on HiLoad 16/600 Superdex 200 pg (GE Healthcare) gel filtration column using 50 mM Tris·HCl pH 7.6, 200 mM NaCl, 2 mM DTT buffer. Protein was aliquoted and stored in the presence of 10% glycerol at -80 °C.
as §1
DcpS assay buffer—50 mM Tris–HCl (pH 7.6), 200 mM KCl, 0.5 mM EDTA, 1 mM DTT.
as §2, §3

DcpS [3] = target: T2, DcpS; experiment: FA screening of in-house library, 2i:DcpS system; assay type: binding; conditions: 1 nM 2i, 25 nM DcpS, 1.5 µM inhibitor
Description: The Z’ factor was determined under conditions optimized for the competition assay. The Z’ value exceeded 0.8 for incubation times up to 1 h, making the assay suitable for screening experiments (Table 5). A screening experiment was then performed using the same compound library as that used for eIF4E screening. The results highlighted the impact of the triphosphate bridge modification on the affinity for the protein. […] The FA method also enabled the identification of unstable compounds, e.g., hydrozylable ligands for which determination of affinity is problematic (as observed by FA signal changes during the experiment; Fig. 7).
To evaluate the quality of the assay, the Z’ factor was determined for several protein-probe combinations. The assay was performed on 96-well microplates, where half of the samples were negative controls and the other half were positive controls.
For the screening experiments a small in-house library containing 21 ligands was used. Experiments were conducted in the same manner as Z’ factor determination, with exception that the ligand concentration was modified (eIF4E screening conditions: 1 nM 1e, 100 nM eIF4E, 750 nM ligand, DcpS screening conditions: 1 nM 2i, 25 nM DcpS, 1.5 µM ligand). For eIF4E screening experiment, the 1e:eIF4E system was used, for DcpS screening 2i:DcpS system was used.

4G peptide = 4G peptide (UniProt Q04637); experiment: fluorescence anisotropy; conditions: cited from earlier work
[4] = Probe 1a: 10 nM probe 1a and 100 nM eIF4E
[5] = Probe 1b: 1 nM probe 1b and 15 nM eIF4E
[6] = Probe 1e: footnote c, 1 nM probe 1c and 100 nM eIF4E
[7] = 1f:DcpS system, 1f and 100 nM DcpS
[8] = 2g:DcpS system, 2 nM 2g and 25 nM DcpS
[9] = 2i:DcpS system, 1 nM 2i and 25 nM DcpS
[10] = 2h:DcpS system, 2 nM 2h and 25 nM DcpS

T1 sequence (P63073 28-217): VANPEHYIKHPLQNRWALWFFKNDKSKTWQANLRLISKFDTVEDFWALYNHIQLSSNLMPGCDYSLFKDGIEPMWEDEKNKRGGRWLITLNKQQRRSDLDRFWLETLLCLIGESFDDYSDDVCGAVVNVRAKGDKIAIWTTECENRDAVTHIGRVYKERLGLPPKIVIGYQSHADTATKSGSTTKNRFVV
eIF4E (from UniProt P06730), sequence (P06730 2-217): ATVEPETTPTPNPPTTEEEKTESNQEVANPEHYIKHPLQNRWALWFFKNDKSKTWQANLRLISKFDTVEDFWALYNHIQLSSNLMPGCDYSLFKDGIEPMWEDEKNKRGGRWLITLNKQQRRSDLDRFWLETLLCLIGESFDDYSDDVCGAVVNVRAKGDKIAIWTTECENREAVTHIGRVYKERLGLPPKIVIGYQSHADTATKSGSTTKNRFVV

Hill slope (eIF4E; [4])	EC50 (eIF4E; [4])	Hill slope (eIF4E; [5])	EC50 (eIF4E; [5])	Hill slope (eIF4E; [6])	EC50 (eIF4E; [6])	inhibitory potency in DcpS screening (DcpS [3])	Compound	also measured
1.37 ± 0.02	0.184 ± 0.013 µM	1.16 ± 0.18	0.21 ± 0.032 µM	1.10 ± 0.06	0.226 ± 0.043 µM	–	C[n+]1cn([C@@H]2O[C@H](COP(=O)([O-])OP(O)(=S)OP(=O)(O)OC[C@H]3O[C@@H](n4cnc5c(=O)[nH]c(N)nc54)[C@H](O)[C@@H]3O)[C@@H](O)[C@H]2O)c2nc(N)[nH]c(=O)c21 (single isomer, unassigned) [m^7GppSpG D1]	–
1.19 ± 0.06	0.382 ± 0.021 µM	1.15 ± 0.06	0.511 ± 0.109 µM	1.04 ± 0.17	0.477 ± 0.089 µM	–	C[n+]1cn([C@@H]2O[C@H](COP(=O)([O-])OP(O)(=S)OP(=O)(O)OC[C@H]3O[C@@H](n4cnc5c(=O)[nH]c(N)nc54)[C@H](O)[C@@H]3O)[C@@H](O)[C@H]2O)c2nc(N)[nH]c(=O)c21 (single isomer, unassigned) [m^7GppSpG D2]	–
2.07 ± 0.02	0.068 ± 0.003 µM	1.64 ± 0.10	0.0222 ± 0.0037 µM	1.46 ± 0.60	0.0514 ± 0.0061 µM	–	CO[C@@H]1[C@H](O)[C@@H](COP([O-])(=S)OP(=O)(O)OP(=O)(O)OP(=O)(O)OC[C@H]2O[C@@H](n3cnc4c(=O)[nH]c(N)nc43)[C@H](O)[C@@H]2O)O[C@H]1n1c[n+](C)c2c(=O)[nH]c(N)nc21 (single isomer, unassigned) [m^7′-OGpSpppG D1, m^7,2′-OGpSpppG D1]	–
1.94 ± 0.26	0.074 ± 0.01 µM	1.37 ± 0.08	0.0349 ± 0.007 µM	1.40 ± 0.06	0.0643 ± 0.0034 µM	–	CO[C@@H]1[C@H](O)[C@@H](COP([O-])(=S)OP(=O)(O)OP(=O)(O)OP(=O)(O)OC[C@H]2O[C@@H](n3cnc4c(=O)[nH]c(N)nc43)[C@H](O)[C@@H]2O)O[C@H]1n1c[n+](C)c2c(=O)[nH]c(N)nc21 (single isomer, unassigned) [m^7′-OGpSpppG D2, m^7,2′-OGpSpppG D2]	–
1.36 ± 0.03	0.204 ± 0.0055 µM	1.16 ± 0.04	0.212 ± 0.03 µM	1.08 ± 0.07	0.216 ± 0.011 µM	–	Cn1c[n+]([C@@H]2O[C@H](COP(=O)(O)OP(=O)([O-])O)[C@@H](O)[C@H]2O)c2nc(N)[nH]c(=O)c21 [m^7GDP]	EC50 (DcpS [2]; [7]): 0.0365 ± 0.0036 µM; Hill slope (DcpS [2]; [7]): 1.98 ± 0.18; EC50 (DcpS [2]; [8]): 0.0164 ± 0.0002 µM; Hill slope (DcpS [2]; [8]): 1.55 ± 0.09; EC50 (DcpS [2]; [9]): 0.0362 ± 0.0047 µM; Hill slope (DcpS [2]; [9]): 1.42 ± 0.06; EC50 (DcpS [2]; [10]): 0.0312 ± 0.0107 µM; Hill slope (DcpS [2]; [10]): 1.06 ± 0.37; IC50 (DcpS [1]): 5.2 ± 1.2 µM
–	–	–	–	–	–	–	Cn1c[n+]([C@@H]2O[C@H](COP(=O)(O)O)[C@@H](O)[C@H]2O)c2nc(N)[nH]c(=O)c21 [m^7GMP]	EC50 (DcpS [2]; [7]): 0.104 ± 0.011 µM; Hill slope (DcpS [2]; [7]): 1.19 ± 0.15; EC50 (DcpS [2]; [8]): 0.112 ± 0.011 µM; Hill slope (DcpS [2]; [8]): 1.04 ± 0.02; EC50 (DcpS [2]; [9]): 0.255 ± 0.014 µM; Hill slope (DcpS [2]; [9]): 1.00 ± 0.02; EC50 (DcpS [2]; [10]): 0.357 ± 0.044 µM; Hill slope (DcpS [2]; [10]): 0.93 ± 0.07; IC50 (DcpS [1]): 97 ± 21 µM
–	–	–	–	–	–	strong DcpS inhibitors	C[n+]1cn([C@@H]2O[C@H](COP(=O)(O)CP(=O)(O)OP(=O)(O)OC[C@H]3O[C@@H](n4cnc5c(=O)[nH]c(N)nc54)[C@H](O)[C@@H]3O)[C@@H](O)[C@H]2O)c2nc(N)[nH]c(=O)c21 [m^7GpCH2ppG]	–
–	–	–	–	–	–	strong DcpS inhibitors	C[n+]1cn([C@@H]2O[C@H](COP(=O)(O)CP(=O)(O)OP(=O)([O-])OP(=O)(O)OC[C@H]3O[C@@H](n4cnc5c(=O)[nH]c(N)nc54)[C@H](O)[C@@H]3O)[C@@H](O)[C@H]2O)c2nc(N)nc(O)c21 [m^7GpCH2pppG]	–
–	–	–	–	–	–	strong DcpS inhibitors	C[n+]1cn([C@@H]2O[C@H](COP(=O)([O-])NP(=O)(O)OP(=O)(O)OC[C@H]3O[C@@H](n4cnc5c(=O)[nH]c(N)nc54)[C@H](O)[C@@H]3O)[C@@H](O)[C@H]2O)c2nc(N)[nH]c(=O)c21.N.N [m^7GpNHppG]	EC50 (DcpS [2]; [7]): 0.0278 ± 0.0027 µM; Hill slope (DcpS [2]; [7]): 2.26 ± 0.16; EC50 (DcpS [2]; [8]): 0.0116 ± 0.0004 µM; Hill slope (DcpS [2]; [8]): 1.95 ± 0.07; EC50 (DcpS [2]; [9]): 0.0179 ± 0.0013 µM; Hill slope (DcpS [2]; [9]): 1.66 ± 0.10; EC50 (DcpS [2]; [10]): 0.0181 ± 0.005 µM; Hill slope (DcpS [2]; [10]): 1.23 ± 0.44; IC50 (DcpS [1]): 3.2 ± 0.9 µM
–	–	–	–	–	–	–	C[n+]1cn([C@@H]2O[C@H](COP(=O)([S-])OP(=O)(O)OP(=O)(O)OC[C@H]3O[C@@H](n4cnc5c(=O)[nH]c(N)nc54)[C@H](O)[C@@H]3O)[C@@H](O)[C@H]2O)c2nc(N)nc(O)c21 (stereo partly drawn) [m^7GpSppG D1]	stability towards DcpS (FA signal changes during the screening experiment) (DcpS [3]): slowly hydrolyzed DcpS substrates
–	–	–	–	–	–	–	[BH3-]P(=O)(OP(=O)(O)OCC1OC(n2cnc3c(=O)[nH]c(N)nc32)C(O)C1O)OP(=O)(O)OCC1OC(n2c[n+](C)c3c(=O)[nH]c(N)nc32)C(O)C1O (stereo not drawn) [m^7GppBH3pG D1]	stability towards DcpS (FA signal changes during the screening experiment) (DcpS [3]): slowly hydrolyzed DcpS substrates
–	–	–	–	–	–	–	[BH3-]P(=O)(OP(=O)(O)OCC1OC(n2cnc3c(=O)[nH]c(N)nc32)C(O)C1O)OP(=O)(O)OCC1OC(n2c[n+](C)c3c(=O)[nH]c(N)nc32)C(O)C1O (stereo not drawn) [m^7GppBH3pG D2]	stability towards DcpS (FA signal changes during the screening experiment) (DcpS [3]): slowly hydrolyzed DcpS substrates
1.12 ± 0.03	0.413 ± 0.013 µM	1.12 ± 0.06	0.599 ± 0.064 µM	1.08 ± 0.11	0.551 ± 0.075 µM	–	Cn1c[n+]([C@@H]2O[C@H](COP(=O)(O)OP(=O)([O-])OP(=O)(O)OC[C@H]3O[C@@H](n4cnc5c(=O)[nH]c(N)nc54)[C@H](O)[C@@H]3O)[C@@H](O)[C@H]2O)c2nc(N)[nH]c(=O)c21 [m^7GpppG]	–
–	–	–	–	–	–	–	eIF4E (from UniProt P06730)	Kd (4G peptide): 25 µM
–	–	–	–	–	–	the most potent inhibitors	m^7GSppSpG D1	–
–	–	–	–	–	–	the most potent inhibitors	m^7GSppSpG D2	–
–	–	–	–	–	–	the most potent inhibitors	m^7GSppSpSG D1	–
–	–	–	–	–	–	the most potent inhibitors	m^7GSppSpSG D2	–

— article PMC8032668, “Evaluation of carboxyfluorescein-labeled 7-methylguanine nucleotides as probes for studying cap-binding proteins by fluorescence anisotropy” (Scientific Reports, 2021)
